These compounds were tested against T1, human TGR5 (h-TGR5) (Homo sapiens, UniProt Q8TDU6) (assay: TGR5/CRE-Luciferiase Assay (HEK 293 hTGR5/CRE-Luc cells)). Conditions: HEK 293 hTGR5/CRE-Luc cells, 6 hours incubation, luciferase activity; Table 2; read-out: h-TGR5CRE-Luc EC50 (CRE-Luc).
T1 construct: expressed in transfected cells
T1 sequence (Q8TDU6 1-330): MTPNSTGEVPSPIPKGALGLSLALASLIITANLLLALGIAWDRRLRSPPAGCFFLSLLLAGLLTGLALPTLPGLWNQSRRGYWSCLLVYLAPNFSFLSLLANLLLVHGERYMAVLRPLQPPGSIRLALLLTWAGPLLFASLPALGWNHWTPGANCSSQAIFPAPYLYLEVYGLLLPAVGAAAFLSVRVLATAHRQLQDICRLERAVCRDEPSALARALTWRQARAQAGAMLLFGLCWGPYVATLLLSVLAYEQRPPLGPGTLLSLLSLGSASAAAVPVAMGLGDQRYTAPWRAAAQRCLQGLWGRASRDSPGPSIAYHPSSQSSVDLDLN
Assay type: cell-based
In short: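 HEK293 cells stably carrying hTGR5 and a CRE-luciferase reporter were exposed to serially diluted compounds (diluted in DMEM with 5% DMSO) for 6 h. Cells were then lysed in luciferase buffer, luminescence was read, and EC50 values were derived from dose-response curves.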

Row | EC50 | Compound
1 | 1000 to 10000 nM | CS(=O)(=O)c1ccc(Cc2nnc(SCc3ccc(F)cc3Cl)n2-c2ccc(F)cc2)cc1 [Example 44]
2 | < 100 nM | COc1ccc(Cc2nnc(SCc3cccc(C(F)(F)F)c3F)n2-c2ccc(F)cc2)cc1OC [Example 30]

Same assay, conditions: h-TGR5 CRE-Luc EC50, Table 1; read-out: CRE-Luc (EC50)

Row | Compound | EC50
3 | CC(C)(c1ccc(Cl)c(Cl)c1)c1cnc(SCc2c(F)cccc2Cl)n1-c1ccc(Cl)cc1Cl [2-{[(2-chloro-6-fluorophenyl)methyl]thio}-1-(2,4-dichlorophenyl)-5-[1-(3,4-dichlorophenyl)-1-methylethyl]-1H-imidazole] | 1000 to 10000 nM
4 | CC(C)(c1ccc(Cl)c(Cl)c1)c1cnc(S(=O)(=O)Cc2ccc(Cl)c(Cl)c2)n1-c1ccc(F)cc1 [5-[1-(3,4-dichlorophenyl)-1-methylethyl]-2-{[(3,4-dichlorophenyl)methyl]sulfonyl}-1-(4-fluorophenyl)-1H-imidazole] | 1000 to 10000 nM
5 | CC(C)(c1ccc(Cl)c(Cl)c1)c1cnc(C2=CCN(S(C)(=O)=O)CC2)n1-c1ccc(F)cc1 [4-{5-[1-(3,4-dichlorophenyl)-1-methylethyl]-1-(4-fluorophenyl)-1H-imidazol-2-yl}-1-(methylsulfonyl)-1,2,3,6-tetrahydropyridine] | 1000 to 10000 nM
6 | CC(C)(c1ccc(Cl)c(Cl)c1)c1cnc(S(=O)(=O)Cc2ccc(F)cc2Cl)n1-c1ccc(F)cc1 [2-{[(2-chloro-4-fluorophenyl)methyl]sulfonyl}-5-[1-(3,4-dichlorophenyl)-1-methylethyl]-1-(4-fluorophenyl)-1H-imidazole] | 1000 to 10000 nM
7 | COc1cc(C(C)(C)c2cnc(SCC3CCN(CCO)CC3)n2-c2ccc(F)cc2)ccc1Cl [2-[4-({[5-{1-[4-chloro-3-(methyloxy)phenyl]-1-methylethyl}-1-(4-fluorophenyl)-1H-imidazol-2-yl]thio}methyl)piperidin-1-yl]ethanol] | 1000 to 10000 nM
8 | CC(C)(c1ccc(Cl)c(Cl)c1)c1cnc(C2CCN(S(C)(=O)=O)CC2)n1-c1ccc(F)cc1 [4-{5-[1-(3,4-dichlorophenyl)-1-methylethyl]-1-(4-fluorophenyl)-1H-imidazol-2-yl}-1-(methylsulfonyl)piperidine] | 1000 to 10000 nM
9 | CC(C)(c1ccc(Cl)c(Cl)c1)c1cnc(S(=O)(=O)Cc2cc(Cl)ccc2Cl)n1-c1ccc(F)cc1 [5-[1-(3,4-dichlorophenyl)-1-methylethyl]-2-{[(2,5-dichlorophenyl)methyl]sulfonyl}-1-(4-fluorophenyl)-1H-imidazole] | 100 to 1000 nM
10 | CC(C)(c1ccc(F)c(F)c1)c1cnc(SCC2CCN(CC(O)CO)CC2)n1-c1ccc(F)cc1 (stereo not shown) [3-{4-[({5-[1-(3,4-difluorophenyl)-1-methylethyl]-1-(4-fluorophenyl)-1H-imidazol-2-yl}thio)methyl]piperidin-1-yl}propane-1,2-diol] | 1000 to 10000 nM
11 | CC(C)(c1ccc(F)c(F)c1)c1cnc(SCc2ccc(F)c(C(=O)O)c2)n1-c1ccc(F)cc1 [5-[({5-[1-(3,4-difluorophenyl)-1-methylethyl]-1-(4-fluorophenyl)-1H-imidazol-2-yl}thio)methyl]-2-fluorobenzoic acid] | 100 to 1000 nM
12 | CC(C)(c1ccc(S(C)(=O)=O)cc1)c1cnc(SCc2ccc(S(=O)(=O)NC(=O)NN3CCCC3)cc2Cl)n1-c1ccc(F)cc1 [3-chloro-4-({[1-(4-fluorophenyl)-5-{1-methyl-1-[4-(methylsulfonyl)phenyl]ethyl}-1H-imidazol-2-yl]thio}methyl)-N-[(pyrrolidin-1-ylamino)carbonyl]benzenesulfonamide] | 1000 to 10000 nM
13 | CC(C)(O)c1ccc(CSc2ncc(C(C)(C)c3ccc(Cl)c(Cl)c3)n2-c2ccc(F)cc2)c(Cl)c1 [2-{3-chloro-4-[({5-[1-(3,4-dichlorophenyl)-1-methylethyl]-1-(4-fluorophenyl)-1H-imidazol-2-yl}thio)methyl]phenyl}propan-2-ol] | 100 to 1000 nM
14 | CC(C)(c1ccc(Cl)c(Cl)c1)c1cnc(OCC2CCN(c3nnn[nH]3)CC2)n1-c1ccc(F)cc1 [4-[({5-[1-(3,4-dichlorophenyl)-1-methylethyl]-1-(4-fluorophenyl)-1H-imidazol-2-yl}oxy)methyl]-1-(1H-tetrazol-5-yl)piperidine] | 1000 to 10000 nM

Second part, the compound after the results:

Row | EC50 | Compound
15 | < 100 nM | COc1ccc(C(C)(C)c2cnc(SCc3ccc(F)cc3Cl)n2-c2ccc(F)cc2)cc1Cl [2-{[(2-chloro-4-fluorophenyl)methyl]thio}-5-{1-[3-chloro-4-(methyloxy)phenyl]-1-methylethyl}-1-(4-fluorophenyl)-1H-imidazole]
16 | 100 to 1000 nM | CC(C)(c1ccc(Cl)c(Cl)c1)c1cnc(CSc2ccc(Cl)c(Cl)c2)n1-c1ccc(F)cc1 [5-[1-(3,4-dichlorophenyl)-1-methylethyl]-2-{[(3,4-dichlorophenyl)thio]methyl}-1-(4-fluorophenyl)-1H-imidazole]
17 | 100 to 1000 nM | CC(C)(c1ccc(Cl)c(Cl)c1)c1cnc(SCc2ccc(S(N)(=O)=O)c(F)c2)n1-c1ccc(F)cc1 [4-[({5-[1-(3,4-dichlorophenyl)-1-methylethyl]-1-(4-fluorophenyl)-1H-imidazol-2-yl}thio)methyl}-2-fluorobenzenesulfonamide]
18 | 100 to 1000 nM | CC(C)(c1ccc(Cl)c(Cl)c1)c1cnc(COc2ccc(Cl)cn2)n1-c1ccc(F)cc1 [5-chloro-2-[({5-[1-(3,4-dichlorophenyl)-1-methylethyl]-1-(4-fluorophenyl)-1H-imidazol-2-yl}methyl)oxy]pyridine]
19 | 1000 to 10000 nM | CC(C)(c1ccc(OCC(=O)O)cc1)c1cnc(SCc2c(F)cccc2Cl)n1-c1ccc(F)cc1 [[(4-{1-[2-{[(2-chloro-6-fluorophenyl)methyl]thio}-1-(4-fluorophenyl)-1H-imidazol-5-yl]-1-methylethyl}phenyl)oxy]acetic acid]
20 | < 100 nM | COc1ccc(C(C)(C)c2cnc(SCc3ccc(Cl)c(Cl)c3)n2-c2ccc(F)cc2)cc1OC [5-{1-[3,4-bis(methyloxy)phenyl]-1-methylethyl}-2-{[(3,4-dichlorophenyl)methyl]thio}-1-(4-fluorophenyl)-1H-imidazole]
21 | 100 to 1000 nM | COc1ccc(C(C)(C)c2cnc(SCc3c(F)cccc3C(=O)O)n2-c2ccc(F)cc2)cc1OC [2-({[5-{1-[3,4-bis(methyloxy)phenyl]-1-methylethyl}-1-(4-fluorophenyl)-1H-imidazol-2-yl]thio}methyl)-3-fluorobenzoic acid]
22 | 1000 to 10000 nM | CC(Sc1ccc(F)cc1Cl)c1ncc(C(C)(C)c2ccc(Cl)c(Cl)c2)n1-c1ccc(F)cc1 (stereo not shown) [2-{1-[(2-chloro-4-fluorophenyl)thio]ethyl}-5-[1-(3,4-dichlorophenyl)-1-methylethyl]-1-(4-fluorophenyl)-1H-imidazole]
23 | 1000 to 10000 nM | COc1ccc(C(C)(C)c2c(-c3ccc(F)cc3)nc(SCc3c(F)cccc3Cl)n2C)cc1OC [5-{1-[3,4-bis(methyloxy)phenyl]-1-methylethyl}-2-{[(2-chloro-6-fluorophenyl)methyl]thio}-4-(4-fluorophenyl)-1-methyl-1H-imidazole]
24 | 1000 to 10000 nM | COc1ccc(C(C)(C)c2cnc(C(=O)Nc3ccc(F)cc3Cl)n2-c2ccc(F)cc2)cc1OC [5-{1-[3,4-bis(methyloxy)phenyl]-1-methylethyl}-N-(2-chloro-4-fluorophenyl)-1-(4-fluorophenyl)-1H-imidazole-2-carboxamide]
25 | 100 to 1000 nM | CC(C)(c1ccc(Cl)c(Cl)c1)c1cnc(SCc2ccc(C(N)=O)cc2F)n1-c1ccc(F)cc1 [4-[({5-[1-(3,4-dichlorophenyl)-1-methylethyl]-1-(4-fluorophenyl)-1H-imidazol-2-yl}thio)methyl]-3-fluorobenzamide]
26 | 1000 to 10000 nM | CC(C)(c1ccc(OCC(=O)O)c(Cl)c1)c1cnc(SCc2ccc(F)cc2Cl)n1-c1ccc(F)cc1 [[(2-chloro-4-{1-[2-{[(2-chloro-4-fluorophenyl)methyl]thio}-1-(4-fluorophenyl)-1H-imidazol-5-yl]-1-methylethyl}phenyl)oxy]acetic acid]
27 | 1000 to 10000 nM | CC(Oc1ccc(Cl)c(Cl)c1)c1ncc(C(C)(C)c2ccc(Cl)c(Cl)c2)n1-c1ccc(F)cc1 (stereo not shown) [5-[1-(3,4-dichlorophenyl)-1-methylethyl]-2-{1-[(3,4-dichlorophenyl)oxy]ethyl}-1-(4-fluorophenyl)-1H-imidazole]
28 | 1000 to 10000 nM | COc1ccc(C(C)(C)c2cnc(C(=O)N3CCCC3)n2-c2ccc(F)cc2)cc1OC [5-{1-[3,4-bis(methyloxy)phenyl]-1-methylethyl}-1-(4-fluorophenyl)-2-(pyrrolidin-1-ylcarbonyl)-1H-imidazole]
29 | 1000 to 10000 nM | COc1ccc(C(C)(C)c2cnc(C(=O)Nc3c(F)cccc3Cl)n2-c2ccc(F)cc2)cc1OC [5-{1-[3,4-bis(methyloxy)phenyl]-1-methylethyl}-N-(2-chloro-6-fluorophenyl)-1-(4-fluorophenyl)-1H-imidazole-2-carboxamide]
30 | < 100 nM | COc1ccc(C(C)(C)c2cnc(CNc3ccc(F)cc3Cl)n2-c2ccc(F)cc2)cc1OC [N-{[5-{1-[3,4-bis(methyloxy)phenyl]-1-methylethyl}-1-(4-fluorophenyl)-1H-imidazol-2-yl]methyl}-2-chloro-4-fluoroaniline]
31 | < 100 nM | COc1ccc(C(C)(C)c2cnc(CNCc3c(F)cccc3Cl)n2-c2ccc(F)cc2)cc1OC [1-[5-{1-[3,4-bis(methyloxy)phenyl]-1-methylethyl}-1-(4-fluorophenyl)-1H-imidazol-2-yl]-N-[(2-chloro-6-fluorophenyl)methyl]methanamine]

Reference: patent publication US8785488B2 (Exelixis Patent Company LLC, priority 2009, dated 2014)
